Test results: patent US10246462B2, “Chemokine receptor modulators and uses thereof” (FLX Bio, Inc., priority 2016, dated 2019)
Counter-ions that a name gives are not always drawn.

Target: CCR4 (Homo sapiens (Human), UniProt P51679)
Experiment: Calcium mobilization (Ca Flux) assay
Type: cell-based
Description: Calcium Mobilization Assay. Calcium mobilization experiments may be performed by labeling the human T-cell line CEM with […] dye (45 min at room temperature), washing with PBS, and re-suspending into flux buffer (HBSS with 1% FBS).

Sequence of CCR4 (P51679 whole entry): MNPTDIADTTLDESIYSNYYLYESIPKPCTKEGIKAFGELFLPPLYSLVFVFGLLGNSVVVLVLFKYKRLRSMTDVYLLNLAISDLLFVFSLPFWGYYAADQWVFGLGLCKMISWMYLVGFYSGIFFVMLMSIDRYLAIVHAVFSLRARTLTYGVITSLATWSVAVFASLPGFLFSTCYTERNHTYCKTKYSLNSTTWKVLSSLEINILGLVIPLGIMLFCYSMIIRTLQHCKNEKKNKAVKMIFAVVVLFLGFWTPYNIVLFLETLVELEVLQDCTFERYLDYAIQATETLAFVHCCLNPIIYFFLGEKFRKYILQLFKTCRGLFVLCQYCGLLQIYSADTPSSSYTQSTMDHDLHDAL

First: Cc1nn([C@H](C)c2ccc(Cl)cc2Cl)c2nc(N3CC[C@H](N4CCC[C@H]4CCS(N)(=O)=O)[C@H](C)C3)cnc12 [Example 52, 2-((S)-1-((3R,4S)-1-(1-((R)-1-(2,4-Dichlorophenyl)ethyl)-3-methyl-1H-pyrazolo[3,4-b]pyrazin-6-yl)-3-methylpiperidin-4-yl)pyrrolidin-2-yl)ethane-1-sulfonamide hydrochloride]
Second: Cc1nn([C@H](C)c2ccc(Cl)cc2Cl)c2nc(N3CC[C@@H](N4CCC[C@H]4CCS(N)(=O)=O)[C@@H](C)C3)cnc12 [Example 53, 2-((S)-1-((3S,4R)-1-(1-((R)-1-(2,4-Dichlorophenyl)ethyl)-3-methyl-1H-pyrazolo[3,4-b]pyrazin-6-yl)-3-methylpiperidin-4-yl)pyrrolidin-2-yl)ethane-1-sulfonamide hydrochloride]
The IC50 of the first is lower: under 100 nM for the first, 100 to 500 nM for the second. The first is the more potent here.

First: Cc1nn([C@H](C)c2ccc(Cl)cc2Cl)c2nc(N3CCC(N4CCC[C@H]4CC(F)(F)C(=O)O)C(C)C3)cnc12 (stereo partly drawn) [Example 58, 3-((2S)-1-(1-(1-((R)-1-(2,4-Dichlorophenyl)ethyl)-3-methyl-1H-pyrazolo[3,4-b]pyrazin-6-yl)-3-methylpiperidin-4-yl)pyrrolidin-2-yl)-2,2-difluoropropanoic acid 2,2,2-trifluoroacetate]
Second: Cc1nn([C@H](C)c2ccc(Cl)cc2Cl)c2nc(N3CCC(N4CCC[C@H]4CC(O)C(=O)O)C(C)C3)cnc12 (stereo partly drawn) [Example 59, 3-((2S)-1-(1-(1-((R)-1-(2,4-Dichlorophenyl)ethyl)-3-methyl-1H-pyrazolo[3,4-b]pyrazin-6-yl)-3-methylpiperidin-4-yl)pyrrolidin-2-yl)-2-hydroxypropanoic acid 2,2,2-trifluoroacetate]
The IC50 of the first is higher: over 500 nM for the first, 100 to 500 nM for the second.

`Cc1nn([C@H](C)c2ccc(Cl)cc2Cl)c2nc(N3CCC(N4CCC[C@H]4C(C)CC(=O)O)C(C)C3)cnc12` (stereo partly drawn) [Example 60, 3-((2S)-1-(1-(1-((R)-1-(2,4-Dichlorophenyl)ethyl)-3-methyl-1H-pyrazolo[3,4-b]pyrazin-6-yl)-3-methylpiperidin-4-yl)pyrrolidin-2-yl)butanoic acid 2,2,2-trifluoroacetate] and `Cc1nn([C@H](C)c2ccc(Cl)cc2Cl)c2nc(N3CC[C@H](N4CCC[C@H]4CO)[C@H](C(N)=O)C3)cnc12` [Example 63, (3R,4S)-1-(1-((R)-1-(2,4-Dichlorophenyl)ethyl)-3-methyl-1H-pyrazolo[3,4-b]pyrazin-6-yl)-4-((S)-2-(hydroxymethyl)pyrrolidin-1-yl)piperidine-3-carboxamide hydrochloride] fall in the same range of IC50: 100 to 500 nM for the first, 100 to 500 nM for the second.

`Cc1nn([C@H](C)c2ccc(Cl)cc2Cl)c2nc(N3CCC(N4CCC(F)CC4)C(C)C3)cnc12` (stereo partly drawn) [Example 61, 1-((R)-1-(2,4-Dichlorophenyl)ethyl)-6-(4-fluoro-3′-methyl-[1,4′-bipiperidin]-1′-yl)-3-methyl-1H-pyrazolo[3,4-b]pyrazine hydrochloride] and `Cc1nn([C@H](C)c2ccc(Cl)cc2Cl)c2nc(N3CCC(C4CCCNC4)C(C)C3)cnc12` (stereo partly drawn) [Example 66, 1-((R)-1-(2,4-Dichlorophenyl)ethyl)-3-methyl-6-(3′-methyl-[3,4′-bipiperidin]-1′-yl)-1H-pyrazolo[3,4-b]pyrazine hydrochloride] fall in the same range of IC50: 100 to 500 nM for the first, 100 to 500 nM for the second.

`C[C@H](c1ccc(Cl)cc1Cl)n1nc(C#N)c2ncc(N3CCC(N4CCCC(CO)C4)CC3)nc21` (stereo partly drawn) [Example 62, 1-((R)-1-(2,4-Dichlorophenyl)ethyl)-6-(3-(hydroxymethyl)-[1,4′-bipiperidin]-1′-yl)-1H-pyrazolo[3,4-b]pyrazine-3-carbonitrile hydrochloride] and `Cc1nn([C@H](C)c2ccc(Cl)cc2Cl)c2nc(N3CC[C@H](N4CCC[C@@H](CC(=O)O)C4)[C@H](CO)C3)cnc12` [Example 65, 2-((3S,3′R,4′S)-1′-(1-((R)-1-(2,4-Dichlorophenyl)ethyl)-3-methyl-1H-pyrazolo[3,4-b]pyrazin-6-yl)-3′-(hydroxymethyl)-[1,4′-bipiperidin]-3-yl)acetic acid hydrochloride] fall in the same range of IC50: 100 to 500 nM for the first, 100 to 500 nM for the second.

First: C[C@H](c1ccc(Cl)cc1Cl)n1nc(C#N)c2ncc(N3CC[C@H](N4CCC[C@H]4C(=O)O)[C@H](C(C)(C)O)C3)nc21 [Example 64, ((3R,4S)-1-(3-Cyano-1-((R)-1-(2,4-dichlorophenyl)ethyl)-1H-pyrazolo[3,4-b]pyrazin-6-yl)-3-(2-hydroxypropan-2-yl)piperidin-4-yl)-L-proline hydrochloride]
Second: CC1C=C(c2cnc3c(C#N)nn([C@H](C)c4ccc(Cl)cc4Cl)c3n2)CCC1N1CCC[C@H]1CCC(=O)O (stereo partly drawn) [Example 73, 3-((2S)-1-(4-(3-Cyano-1-((R)-1-(2,4-dichlorophenyl)ethyl)-1H-pyrazolo[3,4-b]pyrazin-6-yl)-2-methylcyclohex-3-en-1-yl)pyrrolidin-2-yl)propanoic acid 2,2,2-trifluoroacetate]
The IC50 of the first is higher: over 500 nM for the first, 100 to 500 nM for the second. The second is the more potent here.

Compared with `Cc1nn([C@H](C)c2ccc(Cl)cc2Cl)c2nc(N3CCC(C4CCCN(CCC(=O)O)C4)C(C)C3)cnc12` (stereo partly drawn) [Example 67, 3-(1′-(1-((R)-1-(2,4-Dichlorophenyl)ethyl)-3-methyl-1H-pyrazolo[3,4-b]pyrazin-6-yl)-3′-methyl-[3,4′-bipiperidin]-1-yl)propanoic acid hydrochloride], `Cc1nn([C@H](C)c2ccc(Cl)cc2Cl)c2nc(C3=CC[C@H](N4CCC[C@H]4CCC(=O)O)[C@H](C)C3)cnc12` [Example 71, 3-((S)-1-((1S,6R)-4-(1-((R)-1-(2,4-Dichlorophenyl)ethyl)-3-methyl-1H-pyrazolo[3,4-b]pyrazin-6-yl)-6-methylcyclohex-3-en-1-yl)pyrrolidin-2-yl)propanoic acid hydrochloride] is lower in IC50: 100 to 500 nM for the first, under 100 nM for the second.

`Cc1nn([C@H](C)c2ccc(Cl)cc2Cl)c2nc(C3=CCC(N4CCC[C@H]4CO)CC3)cnc12` (stereo partly drawn) [Example 68, ((2S)-1-(4-(1-((R)-1-(2,4-Dichlorophenyl)ethyl)-3-methyl-1H-pyrazolo[3,4-b]pyrazin-6-yl)cyclohex-3-en-1-yl)pyrrolidin-2-yl)methanol] and `C[C@@H]1C=C(c2cnc3c(C#N)nn([C@H](C)c4ccc(Cl)cc4Cl)c3n2)CC[C@@H]1N1CCC[C@H]1CO` [Example 69, 1-((R)-1-(2,4-Dichlorophenyl)ethyl)-6-((3R,4S)-4-((S)-2-(hydroxymethyl)pyrrolidin-1-yl)-3-methylcyclohex-1-en-1-yl)-1H-pyrazolo[3,4-b]pyrazine-3-carbonitrile hydrochloride] fall in the same range of IC50: 100 to 500 nM for the first, 100 to 500 nM for the second.

`Cc1nn([C@H](C)c2ccc(Cl)cc2Cl)c2nc(C3=CCC(N4CCC[C@H]4C(=O)O)C(C)C3)cnc12` (stereo partly drawn) [Example 70, (4-(1-((R)-1-(2,4-Dichlorophenyl)ethyl)-3-methyl-1H-pyrazolo[3,4-b]pyrazin-6-yl)-6-methylcyclohex-3-en-1-yl)-L-proline trifluoroacetate] and `C[C@H](c1ccc(Cl)cc1Cl)n1nc(C#N)c2ncc(C3=CC[C@@H](N4CCC[C@H]4CO)[C@@H](C)C3)nc21` [Example 75, 1-((R)-1-(2,4-Dichlorophenyl)ethyl)-6-((4R,5S)-4-((S)-2-(hydroxymethyl)pyrrolidin-1-yl)-5-methylcyclohex-1-en-1-yl)-1H-pyrazolo[3,4-b]pyrazine-3-carbonitrile] fall in the same range of IC50: 100 to 500 nM for the first, 100 to 500 nM for the second.
